Bounds are passed on as bounds.

The term IC50 denotes the concentration at which inhibition is half-maximal. Read a high IC50 as weaker potency in that assay.

The test system of data set [1] is OCI-AML2 cells. The data set is described as follows: MTS cell growth and viability assay, OCI-AML2. The class given is cell-based. Conditions: OCI-AML2 cells, FIG. 1A.
Procedure: (A) OCI-AML2 cells were treated for 72 h with increasing concentrations of benzimidazoles. After incubation, cell growth and viability was measured by the MTS assay. Data represent the mean percentage of viable cells ±SD from a representative experiment.
Data set [2] relates to bovine tubulin. The data set is described as follows: Tubulin polymerization assay. The note with it: cell-free, bovine tubulin 1.8 mg/ml; flubendazole 100 μM. The class given is biochemical. As to the method:
(§1) A representative figure is shown.
Polymerization of bovine tubulin was measured according to Beyer et al^28. Briefly, bovine tubulin (1.8 mg/ml; Cytoskeleton; Denver, USA) was added to ice cold polymerization buffer (PEM; 80 mM PIPES, 0.5 mM EGTA, 2 mM MgCl2, 10% glycerol and 1 mM GTP) and centrifuged at top speed in a microcentrifuge for 5 min at 4° C. […] Following addition of tubulin, the plate was immediately placed in the spectrophotometer, which was maintained at 37° C., and the absorbance measured every 3 minutes for 2.5 h at 340 nm.

Data set [3] relates to advanced solid tumors. The note with it: Phase I, cited from earlier work.
The subject of data set [4] is leukemia cell lines. The data set can be described thus: Screen of library of 110 drugs for cytotoxicity. The data set is classed as cell-based.
Procedure: OCI-AML2 leukemia cells were treated with increasing concentrations of 8 benzimidazoles. Seventy two hours after incubation, cell growth and viability was measured by the MTS assay.
For data set [5], the system named is bovine tubulin. The data set is described as follows: Site of binding to tubulin (colchicine-tubulin fluorescence). Conditions: tubulin 5.0 μM, 100 μM drug 30 min, then colchicine 10 μM 60 min. As to the method: (C) Tubulin (5.0 μM) was incubated for 30 min with 100 μM vinblastine, 100 μM flubendazole, or buffer control. […] A representative figure is shown.
The site of flubendazole binding was determined similar to Gupta et al^19. Bovine tubulin (5.0 μM) was incubated with 100 μM flubendazole, 100 μM vinblastine or buffer control for 30 min at 37° C.

For data set [6], the system named is OCI-AML2 cells. Conditions: after 16 days of treatment; flubendazole 15 mg/kg, vinblastine 0.3 mg/kg. As to the method: Sub-lethally irradiated SCID mice were injected subcutaneously with OCI-AML2 cells (n=20; 10 per group). After implantation, mice were treated with 50 mg/kg flubendazole (A), 20 mg/kg flubendazole (B), or vehicle control by intraperitoneal injection daily. Tumor volume was measured over time. After 16 days (20 mg/kg dose) or 18 days (50 mg/kg dose), mice were sacrificed and tumors were excised, measured and weighted.
Sub-lethally irradiated SCID mice were injected subcutaneously with OCI-AML2 cells (n=40; 10 per group). […] After 16 (C) or 18 (D) days, mice were sacrificed and tumors were excised, measured and weighted. Data represent the mean±SD tumor weight.
Sub-lethally irradiated SCID mice were injected subcutaneously in the left flank with leukemia OCI-AML2 (2.0×10^6) or myeloma OPM2 (1.0×10^7) cells. Mice were then randomly assigned to receive flubendazole (in 0.9% NaCl and 0.01% tween-80) or vehicle control (0.9% NaCl and 0.01% tween-80) intraperitoneally. […] Tumor volumes (tumor length×width^2×0.5236) were monitored daily using calipers. At the end of the experiment (16-18 days), mice were sacrificed, tumors excised and tumor volume and weight measured. All animal studies were carried out according to the regulations of the Canadian Council on Animal Care and with the approval of the local ethics review board.

In data set [7] the test system is CEM. The data set is described as follows: MTS cell growth and viability assay, CEM. The class given is cell-based. The note with it: 3 replicates. As to the method:
(§2) Leukemia (U937, MDAY, CEM, CEM-VBL) and solid tumor cell lines (PPC-1, HeLa) were cultured in RPMI 1640 medium. The epidermoid carcinoma cell lines KB-3-1 and KB-4.0-HTI^23 were grown in Dulbecco's Modified Eagle Medium. The lung carcinoma cell lines A549 and A549.EpoB40 were grown in RPMI with the latter supplemented with 20% fetal calf serum (FCS), and 40 nM epothilone B.^24 Leukemia cell lines OCI-AML2, CEM, and NB4 and all the myeloma cell lines (OPM2, KMS11, JJN3 LP1, H929, L1, KMS12, KSM18 and OCI My5) were maintained in Iscove's Modified Dulbecco's Medium (IMDM). TEX cells were maintained in IMDM, 15% FCS, 1% penicillin-streptomycin, 2 mM L-glutamine, 20 ng/mL SCF, 2 ng/mL IL-3. Unless otherwise noted, all media were supplemented with 10% FCS, 100 units/mL of streptomycin and 100 μg/mL of penicillin (all from Hyclone, Logan, Utah). Cells were incubated in a humidified air atmosphere containing 5% CO2 at 37° C.
(§3) Cell growth and viability was measured using the 3-(4,5-dimethylthiazol-2-yl)-5-(3-carboxymethoxyphenyl)-2-(4-sulfophenyl)-2H-tetrazolium inner salt (MTS) reduction assay (Promega, Madison, Wis.) according to the manufacture's protocol and as previously described^25. Cells were seeded in 96 well plates and treated with drug for 72 h. Optical density (OD) was measured at 490 nm.

Data set [8] deals with CEM-VBL. The data set is described as follows: MTS assay, CEM-VBL (Pgp over-expressing). The data set is classed as cell-based. The method, then:
Over-expression of P-glycoprotein (Pgp, MDR1) renders cells resistant to vinca alkaloid microtubule inhibitors.^43 Therefore, the effects of Pgp over-expression on flubendazole's cytotoxicity were tested. CEM-VBL cells over-express Pgp,^44 which was confirmed with a rhodamine dye exclusion assay. CEM wild type and CEM-VBL cells were treated with increasing concentrations of flubendazole or vinblastine and cell viability measured by the MTS assay (Table 1). […] In contrast, CEM-VBL cells over-expressing Pgp were resistant to vinblastine at concentrations greater than 5.0 μM (Table 1).
as §2, §3

For data set [9], the system named is bovine tubulin. The data set can be described thus: Measurement of tubulin sulfhydryl groups (DTNB). Conditions: flubendazole 100 μM, vinblastine 10 μM. The data set is classed as biochemical. The method, then: as §1
The ability of microtubule target drugs to alter tubulin structure was assessed by measuring the number of reactive cysteine residues using the sulfhydryl reagent 5,5′-Dithio-bis(2-nitrobenzoic acid) (DTNB; Sigma) as previously described^19,29. […] After incubation, DTNB was added (100 μM final concentration) and the absorbance was measured in a 1 cm path length cuvette at 412 nm for 60 min at 37° C. The number of sulfhydryl groups were determined by using a molar extinction coefficient for DTNB of 13 600 (M^−1, cm^−1).^29

Consider `c1ccc2[nH]cnc2c1` [1,3-benzidiazole], for which the “induction of cell death” value in data set [1] is given as “did not induce cell death”. In addition, the “effect on tubulin polymerization / microtubule formation” value in data set [2] is “did not inhibit microtubule formation”.

As to `CCCSc1ccc2nc(NC(=O)OC)[nH]c2c1` [albendazole], the “patients with severe neutropenia” value in data set [3] (7 patients) is 3 patients. In addition, the “patients with reduced levels of the tumor markers AFP and CEA” value in data set [3] (advanced solid tumors) was 2 of 7.

Take `COC(=O)Nc1nc2ccc(C(=O)c3ccccc3)cc2[nH]1` [mebendazole]: the “cytotoxicity in library screen” value in data set [4] is reported as “cytotoxic”.

Take `c1ccc2[nH]c(-c3cscn3)nc2c1` [thiabendazole]: the “induction of cell death” value in data set [1] is listed as “did not induce cell death”. Further, in data set [2], the “effect on tubulin polymerization / microtubule formation” value was “did not inhibit microtubule formation”.

For the compound vinblastine, the “colchicine fluorescence (colchicine binding to tubulin)” value in data set [5] is “had no effect”. The mouse body weight result in [6] was “does not affect mouse body weight”. Further, the IC50 was 140 ± 10 nM in data set [7] and more than 5000 nM in data set [8] (CEM-VBL, 3 replicates). In data set [8] (Pgp over-expression), the “sensitivity of CEM-VBL cells compared to wild type controls” value was “resistant”. Also, in [9], the “reduction in number of reactive cysteines compared to buffer control” value was determined as 8.6±2.5.
